Measured values published in publication PMC4138267 (Nature chemical biology, 2014).
Where two headings read alike, the source gives them in different places.

Legend:
Assay type in all cases: cell-based
[1] = molecular target: human D2 dopamine receptor (D2LR) (Homo sapiens, UniProt P14416); assay: ERK1/2 phosphorylation assay, Flp-In CHO cells expressing D2LR; details: for Logαβ: cooperativity with dopamine
[2] = molecular target: D2R dimer: WT D2R (protomer A) + D2R-Gqi5 fusion (protomer B) (UniProt P14416+P21279); assay: Aequorin functional complementation assay, WT:WT pair; details: WT:WT complement pair; 100 µM dopamine
[3] = molecular target: D2R dimer: WT D2R (protomer A) + D2-Asp114^3.32Ala-Gqi5 (protomer B) (Homo sapiens, UniProt P14416)
[4] = molecular target: N-terminal c-myc-tagged WT D2LR (Homo sapiens, UniProt P14416); assay: ERK1/2 phosphorylation assay, Flp-In CHO cells, c-myc-tagged WT D2LR; details: pERK1/2, interaction with dopamine
Val91^2.61Ala D2LR = Val91^2.61Ala D2LR (Homo sapiens, UniProt P14416, V91A); details: pERK1/2, interaction with dopamine
[5] = KB, pERK1/2, probe ligand dopamine

human D2 dopamine receptor (D2LR), sequence (P14416 whole entry, the tested form may be a part): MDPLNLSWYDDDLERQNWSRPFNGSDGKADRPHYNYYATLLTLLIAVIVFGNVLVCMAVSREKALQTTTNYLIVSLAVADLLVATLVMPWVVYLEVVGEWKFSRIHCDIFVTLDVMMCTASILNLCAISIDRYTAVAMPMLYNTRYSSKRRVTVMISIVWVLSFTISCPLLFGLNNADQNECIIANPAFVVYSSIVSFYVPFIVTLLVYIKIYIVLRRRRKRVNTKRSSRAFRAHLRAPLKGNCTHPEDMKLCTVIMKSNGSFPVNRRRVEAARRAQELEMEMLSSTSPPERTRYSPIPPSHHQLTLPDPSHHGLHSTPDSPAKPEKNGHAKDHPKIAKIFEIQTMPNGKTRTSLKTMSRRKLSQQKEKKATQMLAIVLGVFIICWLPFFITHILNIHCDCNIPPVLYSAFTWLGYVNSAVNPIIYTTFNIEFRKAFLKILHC
D2R dimer: WT D2R (protomer A) + D2-Asp114^3.32Ala-Gqi5 (protomer B), sequence (P14416 1-414 isoform P14416-2): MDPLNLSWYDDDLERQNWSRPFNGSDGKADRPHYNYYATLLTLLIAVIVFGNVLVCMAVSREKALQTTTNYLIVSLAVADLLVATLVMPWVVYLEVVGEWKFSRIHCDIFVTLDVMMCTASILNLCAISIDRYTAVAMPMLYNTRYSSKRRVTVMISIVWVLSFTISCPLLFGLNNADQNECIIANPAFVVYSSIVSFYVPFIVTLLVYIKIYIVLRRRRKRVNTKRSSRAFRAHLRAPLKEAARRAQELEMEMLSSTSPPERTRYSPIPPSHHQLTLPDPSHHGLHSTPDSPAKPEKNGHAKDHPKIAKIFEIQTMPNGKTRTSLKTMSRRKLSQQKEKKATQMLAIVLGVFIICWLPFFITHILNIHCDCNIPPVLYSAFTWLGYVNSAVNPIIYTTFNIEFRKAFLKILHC
N-terminal c-myc-tagged WT D2LR, sequence (P14416 whole entry): as the sequence (P14416 whole entry, the tested form may be a part) above
Val91^2.61Ala D2LR, sequence (P14416 whole entry V91A): as the sequence (P14416 whole entry, the tested form may be a part) above, with V91A counted along it

CC(=O)N[C@H]1CC[C@H](CCN2CCc3ccc(C#N)cc3C2)CC1 [MIPS1059, N-((trans)-4-(2-(7-cyano-3,4-dihydroisoquinolin-2(1H)yl)ethyl)cyclohexyl)acetamide]
Kb [1]: 23.4 nM
Schild Slope ([1]; pERK1/2, probe ligand dopamine): 1.06 ± 0.04

CCCN1CCc2ccc(C#N)cc2C1 [MIPS1071, 2-propyl-1,2,3,4-tetrahydroisoquinoline-7-carbonitrile]
Kb ([1]; KB, pERK1/2, probe ligand S-3PPP): 363 nM
Kb ([1]; KB, pERK1/2, probe ligand aripiprazole): 575 nM
Kb [1, 5]: 380 nM
Logαβ ([1]; pERK1/2): 1.00 ± 0.08
Schild Slope ([1]; pERK1/2, probe ligand S-3PPP): 1.11 ± 0.18
Schild Slope ([1]; pERK1/2, probe ligand aripiprazole): 0.94 ± 0.18

N#Cc1ccc2c(c1)CNCC2 [THIQ7C, 1,2,3,4-tetrahydroisoquinoline-7-carbonitrile]
Kb [1, 5]: 2510 nM
Logαβ ([1]; pERK1/2): 1.03 ± 0.18
fold lower affinity than SB269652 ([1]; pERK1/2, probe ligand dopamine): 17 fold

CCN1CCCC1CNC(=O)c1cc(S(N)(=O)=O)ccc1OC (stereo not drawn) [sulpiride]
extent of antagonism of dopamine [2]: completely inhibited
extent of antagonism of dopamine [3]: completely antagonized

N#Cc1ccc2c(c1)CCN(CC[C@H]1CC[C@@H](NC(=O)c3cc4ccccc4[nH]3)CC1)C2 [MIPS1217]
Kb [4]: 195 nM
Kb (Val91^2.61Ala D2LR): 891 nM
